Source: patent US9260710B2, “Photocleavable linker” (City of Hope, priority 2012, dated 2016)

Key:
Type in all cases: cell-based
[1] = tested on: GFP-TcTex1 trap transfected Cos1/Cos7 cells; experiment: Organelle dispersion and microtubule array in cells expressing the TcTex1 trap; set-up: dispersion of the three organelle types (early endosomes, lysosomes, Golgi): dose or concentration left out as unconfirmed
Description: (§1) In vivo effect of Dynein LC and IC Traps. As tests for LC function, we evaluated the effects of the traps on early endosome, lysosome, and Golgi distribution, as well as mitotic progression. First, we fused green fluorescent protein (GFP) to the N-terminus of both FKBP-traps to identify transfected cells. Next, we transfected Cos1, Cos7, or HeLa cells with either trap or a GFP-FKBP control and labeled endosomes, lysosomes and Golgi with EEA1, LAMP2 and GM130 markers, respectively (FIGS. 12A-12C). […] The percentage of cells expressing the GFPLC8 or GFP-TcTex1 trap with dispersed endosomes was 14.7±1.5% and 13.3±1.5%, respectively, as compared to 11.7±3.5% and 10.3±3.5% for non-transfected cells and cells that expressed a GFP-FKBP control, respectively. […] After 8 h of treatment with AP20187, we observed greater than 50% dispersion of the three organelle types for each trap.
(§2) To ensure the AP20187 concentration was not limiting, we followed the LC8-trap-induced dispersion of lysosomes as a function of AP20187 concentration after 8 h. […] For the TcTex1-trap, we observed efficient endosome, lysosome and Golgi dispersion at AP20187 concentrations of 1 μM or greater.
(§3) Kinetic Analysis Separates Dynein Functions. A major purpose for developing these traps is to provide immediate inhibition of protein function and follow the cellular response from this perturbation to gain new insight. Thus, we monitored the fraction of cells with dispersed organelles as a function of time. After induction of dimerization by AP20187, effects on both early endosome and lysosome distribution were detectable at 10 min, and leveled off at ˜2 h (FIGS. 14A-14B). […] The most rapid effect was observed on lysosomes in cells expressing the LC8 trap. In striking contrast, Golgi dispersal using either trap occurred over a much longer time-course, requiring 8 h after induction of dimerization to reach similar levels of dispersion as for endosomes and lysosomes. Twenty-four hours after addition of AP20187, the percentage of cells with dispersed Golgi reached levels greater than 85%.

[2] = tested on: GFP-LC8 trap transfected Cos1/Cos7 cells; experiment: Organelle dispersion and microtubule array in cells expressing the LC8 trap
Description: as §1, §2, §3

[3] = tested on: GFP IC trap transfected Cos1 cells; experiment: Organelle dispersion and microtubule array in cells expressing the IC trap
Description: FIGS. 13A-13B. FIGS. 13A-13B depict that induction of IC traps leads to Endosome (FIG. 13A) and Golgi apparatus (FIG. 13B) dispersion. Cos1 cells were transfected with the GFP IC trap (upper rights panels of FIGS. 13A and 13B) for 24 h and then treated with AP20187 for 1 h. The cells were stained with DAPI for nuclei (upper left panels of FIGS. 13 A and 13B) and EEA1 for endosomes (FIG. 13A, lower left panel)) or GM130 marker for Golgi bodies (FIG. 13B, lower left panel). Note the endosomes and Golgi apparatus are dispersed (marked “d”) within 10 min and 1 h, respectively. Cells not containing the IC trap all show compact endosomes and Golgi bodies (marked “c”). Scale bar is 5 μm.
As a test for effects on cytoplasmic dynein functions that are distinct from vesicular transport, we monitored mitotic behavior in cells expressing either the LC8- or TcTex1-traps. We observed little effect on either mitotic index or the fraction of mitotic cells at discrete mitotic stages with either trap (data not shown). […] Finally, similar studies were carried out using the IC trap. As before, we observed little or no change in the dispersion of endosomes and Golgi apparatus before AP20187 treatment. Induction of dimerization through the addition of AP20187 (1 μM) produced immediate changes in both organelles. After 4 h, 81+4% of cells contained dispersed endosomes and 68+3% of cells contained dispersed Golgi. […] The precise reason for this difference is not clear; however, currently, we attribute this to a change in the cytoskeleton, but this must still be verified. We are also in the process of measuring the effect of sequestering the dynein IC on mitotic behavior.
Microtubule architecture. Known methods of inhibiting cytoplasmic dynein, such as expression of dynactin polypeptides or RNAi against the dynein regulatory factors NudEL and ZW10, cause disorganization of the radial microtubule (MT) network in cultured mammalian cells 52-54. […] This is consistent with previous studies where overexpressing a dimeric form of the IC trap (e.g., CC1 of p150glued) also disrupts of the MT array).

[4] = after induction of dimerization
[5] = twenty-four hours after addition
[6] = Cos1 cells, after AP20187 addition

Structure (SMILES): CCC(C(=O)N1CCCCC1C(=O)OC(CCc1ccc(OC)c(OC)c1)c1cccc(OCC(=O)NCC(CNC(=O)COc2cccc(C(CCc3ccc(OC)c(OC)c3)OC(=O)C3CCCCN3C(=O)C(CC)c3cc(OC)c(OC)c(OC)c3)c2)CN(C)C)c1)c1cc(OC)c(OC)c(OC)c1 (stereo not shown) [AP, AP20187]
- AP20187 concentrations giving efficient endosome, lysosome and Golgi dispersion [1]: ≥ 1 µM
- dispersion of the three organelle types (early endosomes, lysosomes, Golgi) ([1]; 8 h of treatment): greater than 50%
- microtubule radial array / cytoskeleton changes ([1]; 8 h post-induction): No significant changes
- time at which effects on early endosome and lysosome distribution leveled off [1, 4]: ~2 h
- time at which effects on early endosome and lysosome distribution were detectable [1, 4]: 10 min
- time required for Golgi dispersal to reach similar levels as endosomes and lysosomes [1, 4]: 8 h
- percentage of cells with dispersed Golgi [1, 5]: greater than 85%
- dispersion of the three organelle types (early endosomes, lysosomes, Golgi) ([2]; 8 h of treatment, 100 μM AP20187): greater than 50%
- microtubule radial array / cytoskeleton changes ([2]; 8 h post-induction): No significant changes
- AP20187 concentration at which lysosome dispersion reached a plateau ([2]; after 8 h): 100 nM
- time at which effects on early endosome and lysosome distribution leveled off [2, 4]: ~2 h
- time at which effects on early endosome and lysosome distribution were detectable [2, 4]: 10 min
- time required for Golgi dispersal to reach similar levels as endosomes and lysosomes [2, 4]: 8 h
- percentage of cells with dispersed Golgi [2, 5]: greater than 85%
- cells containing dispersed Golgi ([3]; AP20187 1 μM, after 4 h): 68+3%
- cells containing dispersed endosomes ([3]; AP20187 1 μM, after 4 h): 81+4%
- microtubule (MT) radial array ([3]; AP20187-induced dimerization of the IC trap): significantly disrupted
- time within which Golgi apparatus is dispersed [3, 6]: ≤ 1 h
- time within which endosomes are dispersed [3, 6]: ≤ 10 min
